From US11702422B2, “Imidazopyridazines as modulators of IL-17” (Janssen Pharmaceutica NV, priority 2020, dated 2023)

Tests used:
[1] = biological target: IL-17A(FLAG-Tagged): IL-17RA(His-Tagged) (Homo sapiens, UniProt Q16552, K93Q); test: IL-17A(FLAG-Tagged): IL-17RA(His-Tagged) Binding Disruption Eu-HTRF Assay; conditions: IL-17A/IL-17RA binding disruption, simple average if tested more than once
Outline: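 IC50 comes from a one-site competition fit of the HTRF 665/620 nm ratio. Compound dilutions (2-fold, 22 points) were held 1 h rt with FLAG-tagged IL-17A dimer, then His-tagged IL-17RA plus Eu-cryptate anti-FLAG and D2 anti-His antibodies were added for 2 h rt.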

[2] = tested on: IL-17A-induced G-CSF production in human normal keratinocyte (NHK); test: NHK Assay: IL-17A-induced G-CSF production in human normal keratinocytes; assay type: cell-based; conditions: Homo sapiens, Keratinocyte, 24 h, adult normal human keratinocytes, IL-17A 5 ng/mL, simple average if tested more than once
Outline: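 G-CSF released by primary adult human keratinocytes after 24 h at 37° C was quantified by HTRF via standard curve to give IC50. Stimulus was 5 ng/mL IL-17A pre-mixed 1 h at rt with compound dilutions, in 5% FBS and 0.2% DMSO. Cell viability was assessed in parallel with CellTiter-Glo.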

Sequence of UniProt Q16552 (Q16552 with tags, fused parts or gaps K93Q): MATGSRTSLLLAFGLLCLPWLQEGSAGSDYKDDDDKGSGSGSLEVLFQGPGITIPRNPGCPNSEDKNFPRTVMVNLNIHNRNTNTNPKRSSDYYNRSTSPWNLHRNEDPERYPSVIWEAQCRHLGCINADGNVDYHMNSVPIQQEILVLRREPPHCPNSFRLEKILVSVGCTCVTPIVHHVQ

Row | Structure (SMILES) | IC50 [1] [µM] | IC50 [2] [µM]
1 | O=C(CCC(F)(F)F)N[C@@H](c1cnn2cc([C@@H](NC(=O)c3cnn(CCOC(F)F)n3)C3CCC(F)(F)CC3)nc2c1)C1CC1 [Example 35, N—((S)-(7-((R)-Cyclopropyl(4,4,4-trifluorobutanamido)methyl)imidazo[1,2-b]pyridazin-2-yl)(4,4-difluorocyclohexyl)methyl)-2-(2-(difluoromethoxy)ethyl)-2H-1,2,3-triazole-4-carboxamide] | 0.12 | 0.2
2 | O=C(CCC(F)(F)F)N[C@@H](c1cnn2cc([C@@H](NC(=O)c3cnn(CCOC(F)(F)F)c3)C3CCC(F)(F)CC3)nc2c1)C1CC1 [Example 36, N—((S)-(7-((R)-Cyclopropyl(4,4,4-trifluorobutanamido)methyl)imidazo[1,2-b]pyridazin-2-yl)(4,4-difluorocyclohexyl)methyl)-1-(2-(trifluoromethoxy)ethyl)-1H-pyrazole-4-carboxamide] | 0.14 | 0.12
3 | O=C(CCC(F)(F)F)N[C@@H](c1cnn2cc([C@@H](NC(=O)c3cnn(CCOC(F)F)c3)C3CCC(F)(F)CC3)nc2c1)C1CC1 [Example 37, N—((S)-(7-((R)-Cyclopropyl(4,4,4-trifluorobutanamido)methyl)imidazo[1,2-b]pyridazin-2-yl)(4,4-difluorocyclohexyl)methyl)-1-(2-(difluoromethoxy)ethyl)-1H-pyrazole-4-carboxamide] | 0.23 | 0.63
4 | O=C(CCC(F)(F)F)N[C@@H](c1cnn2cc([C@@H](NC(=O)c3ncnn3CCC(F)(F)F)C3CCC(F)(F)CC3)nc2c1)C1CC1 [Example 38, N—((S)-(7-((R)-Cyclopropyl(4,4,4-trifluorobutanamido)methyl)imidazo[1,2-b]pyridazin-2-yl)(4,4-difluorocyclohexyl)methyl)-1-(3,3,3-trifluoropropyl)-1H-1,2,4-triazole-5-carboxamide] | 0.078 | 0.4
5 | O=C(CCC(F)(F)F)N[C@@H](c1cnn2cc([C@@H](NC(=O)c3ncnn3CC3CC3)C3CCC(F)(F)CC3)nc2c1)C1CC1 [Example 39, N—((S)-(7-((R)-Cyclopropyl(4,4,4-trifluorobutanamido)methyl)imidazo[1,2-b]pyridazin-2-yl)(4,4-difluorocyclohexyl)methyl)-1-(cyclopropylmethyl)-1H-1,2,4-triazole-5-carboxamide] | 0.11 | 0.43
6 | Cc1ccccc1C(=O)N[C@H](c1cn2ncc([C@H](NC(=O)CCC(F)(F)F)C3CC3)cc2n1)C1CCC(F)(F)CC1 [Example 40, N—((S)-(7-((R)-Cyclopropyl(4,4,4-trifluorobutanamido)methyl)imidazo[1,2-b]pyridazine-2-yl)(4,4-difluorocyclohexyl)methyl)-2-methylbenzamide] | 0.41 | 1.2
7 | CCc1ccccc1C(=O)N[C@H](c1cn2ncc([C@H](NC(=O)CCC(F)(F)F)C3CC3)cc2n1)C1CCC(F)(F)CC1 [Example 41, N—((S)-(7-((R)-Cyclopropyl(4,4,4-trifluorobutanamido)methyl)imidazo[1,2-b]pyridazin-2-yl)(4,4-difluorocyclohexyl)methyl)-2-ethylbenzamide] | 0.35 | 2
8 | O=C(CCC(F)(F)F)N[C@@H](c1cnn2cc([C@@H](NC(=O)c3ccccc3Cl)C3CCC(F)(F)CC3)nc2c1)C1CC1 [Example 42, 2-Chloro-N—((S)-(7-((R)-cyclopropyl(4,4,4-trifluorobutanamido)methyl)imidazo[1,2-b]pyridazin-2-yl)(4,4-difluorocyclohexyl)methyl)benzamide] | 0.41 | 2.2
9 | O=C(CCC(F)(F)F)N[C@@H](c1cnn2cc([C@@H](NC(=O)C3CC34CC4)C3CCC(F)(F)CC3)nc2c1)C1CC1 (stereo partly drawn) [Example 44, N—((S)-(7-((R)-Cyclopropyl(4,4,4-trifluorobutanamido)methyl)imidazo[1,2-b]pyridazin-2-yl)(4,4-difluorocyclohexyl)methyl)spiro[2.2]pentane-1-carboxamide] | 0.74 | 1.4
10 | O=C(CCC(F)(F)F)N[C@@H](c1cnn2cc([C@@H](NC(=O)C3CC34CCC4)C3CCC(F)(F)CC3)nc2c1)C1CC1 (stereo partly drawn) [Example 45, N—((S)-(7-((R)-Cyclopropyl(4,4,4-trifluorobutanamido)methyl)imidazo[1,2-b]pyridazin-2-yl)(4,4-difluorocyclohexyl)methyl)spiro[2.3]hexane-1-carboxamide] | 0.24 | 0.71
11 | O=C(CCC(F)(F)F)N[C@@H](c1cnn2cc([C@@H](NC(=O)c3ncnn3CCC(F)F)C3CCC(F)(F)CC3)nc2c1)C1CC1 [Example 46, N—((S)-(7-((R)-Cyclopropyl(4,4,4-trifluorobutanamido)methyl)imidazo[1,2-b]pyridazin-2-yl)(4,4-difluorocyclohexyl)methyl)-1-(3,3-difluoropropyl)-1H-1,2,4-triazole-5-carboxamide] | 0.13 | 0.64
12 | O=C(CCC(F)(F)F)N[C@@H](c1cnn2cc([C@@H](NC(=O)c3ncnn3CCCF)C3CCC(F)(F)CC3)nc2c1)C1CC1 [Example 47, N—((S)-(7-((R)-Cyclopropyl(4,4,4-trifluorobutanamido)methyl)imidazo[1,2-b]pyridazin-2-yl)(4,4-difluorocyclohexyl)methyl)-1-(3-fluoropropyl)-1H-1,2,4-triazole-5-carboxamide] | 0.18 | 0.64
13 | O=C(CCC(F)(F)F)N[C@@H](c1cnn2cc([C@@H](NC(=O)c3cnnn3CC3CC3)C3CCC(F)(F)CC3)nc2c1)C1CC1 [Example 48, N—((S)-(7-((R)-Cyclopropyl(4,4,4-trifluorobutanamido)methyl)imidazo[1,2-b]pyridazin-2-yl)(4,4-difluorocyclohexyl)methyl)-1-(cyclopropylmethyl)-1H-1,2,3-triazole-5-carboxamide] | 0.063 | 0.16
14 | O=C(CCC(F)(F)F)N[C@@H](c1cnn2cc([C@@H](NC(=O)c3cnnn3CCC(F)F)C3CCC(F)(F)CC3)nc2c1)C1CC1 [Example 49, N—((S)-(7-((R)-Cyclopropyl(4,4,4-trifluorobutanamido)methyl)imidazo[1,2-b]pyridazin-2-yl)(4,4-difluorocyclohexyl)methyl)-1-(3,3-difluoropropyl)-1H-1,2,3-triazole-5-carboxamide] | 0.095 | 0.11
15 | Cc1c(C(=O)N[C@H](c2cn3ncc([C@H](NC(=O)CCC(F)(F)F)C4CC4)cc3n2)C2CCC(F)(F)CC2)cnn1CC(F)F [Example 50, N—((S)-(7-((R)-Cyclopropyl(4,4,4-trifluorobutanamido)methyl)imidazo[1,2-b]pyridazin-2-yl)(4,4-difluorocyclohexyl)methyl)-1-(2,2-difluoroethyl)-5-methyl-1H-pyrazole-4-carboxamide] | 0.35 | 1
16 | O=C(CCC(F)(F)F)N[C@@H](c1cnn2cc([C@@H](NC(=O)c3ncnn3CCOC(F)F)C3CCC(F)(F)CC3)nc2c1)C1CC1 [Example 55, N—((S)-(7-((R)-Cyclopropyl(4,4,4-trifluorobutanamido)methyl)imidazo[1,2-b]pyridazin-2-yl)(4,4-difluorocyclohexyl)methyl)-1-(2-(difluoromethoxy)ethyl)-1H-1,2,4-triazole-5-carboxamide] | 0.1 | 0.21
17 | O=C(CCC(F)(F)F)N[C@@H](c1cnn2cc([C@@H](NC(=O)c3ncnn3CC(F)F)C3CCC(F)(F)CC3)nc2c1)C1CC1 [Example 56, N—((S)-(7-((R)-Cyclopropyl(4,4,4-trifluorobutanamido)methyl)imidazo[1,2-b]pyridazin-2-yl)(4,4-difluorocyclohexyl)methyl)-1-(2,2-difluoroethyl)-1H-1,2,4-triazole-5-carboxamide] | 0.17 | 0.73
18 | O=C(CCC(F)(F)F)N[C@@H](c1cnn2cc([C@@H](NC(=O)c3ncnn3CCF)C3CCC(F)(F)CC3)nc2c1)C1CC1 [Example 57, N—((S)-(7-((R)-Cyclopropyl(4,4,4-trifluorobutanamido)methyl)imidazo[1,2-b]pyridazin-2-yl)(4,4-difluorocyclohexyl)methyl)-1-(2-fluoroethyl)-1H-1,2,4-triazole-5-carboxamide] | 0.22 | 0.77
19 | CCn1nncc1C(=O)N[C@H](c1cn2ncc([C@H](NC(=O)CCC(F)(F)F)C3CC3)cc2n1)C1CCC(F)(F)CC1 [Example 58, N—((S)-(7-((R)-Cyclopropyl(4,4,4-trifluorobutanamido)methyl)imidazo[1,2-b]pyridazin-2-yl)(4,4-difluorocyclohexyl)methyl)-1-ethyl-1H-1,2,3-triazole-5-carboxamide] | 0.081 | 0.27
20 | CCn1ncc(C(=O)N[C@H](c2cn3ncc([C@H](NC(=O)CCC(F)(F)F)C4CC4)cc3n2)C2CCC(F)(F)CC2)n1 [Example 59, N—((S)-(7-((R)-Cyclopropyl(4,4,4-trifluorobutanamido)methyl)imidazo[1,2-b]pyridazin-2-yl)(4,4-difluorocyclohexyl)methyl)-2-ethyl-2H-1,2,3-triazole-4-carboxamide] | 0.42 | 3.6
21 | O=C(CCC(F)(F)F)N[C@@H](c1cnn2cc([C@@H](NC(=O)C3(F)CC3)C3CCC(F)(F)CC3)nc2c1)C1CC1 [Example 60, N—((S)-(7-((R)-Cyclopropyl(4,4,4-trifluorobutanamido)methyl)imidazo[1,2-b]pyridazin-2-yl)(4,4-difluorocyclohexyl)methyl)-1-fluorocyclopropane-1-carboxamide] | 0.39 | 3.5
